Measured values taken from patent publication US11427548B2 (Arvinas Operations, Inc., priority 2015, dated 2022).

Target: T1, Androgen Receptor (Homo sapiens, UniProt P10275+P40337, T878A)
T1 construct: Compounds have been evaluated in this assay in LNCaP and/or VCaP cells utilizing similar protocols; endogenous in cells; host or cells: LNCaP cells
Test: Androgen Receptor ELISA assay (PathScan AR ELISA) in LNCaP cells: AR degradation, Dmax and DC50
Format: cell-based
Conditions: for DC50: concentration that caused 50% Androgen Receptor degradation; for Dmax: highest percentage of Androgen Receptor degradation observed

T1 sequence (P10275 whole entry T878A): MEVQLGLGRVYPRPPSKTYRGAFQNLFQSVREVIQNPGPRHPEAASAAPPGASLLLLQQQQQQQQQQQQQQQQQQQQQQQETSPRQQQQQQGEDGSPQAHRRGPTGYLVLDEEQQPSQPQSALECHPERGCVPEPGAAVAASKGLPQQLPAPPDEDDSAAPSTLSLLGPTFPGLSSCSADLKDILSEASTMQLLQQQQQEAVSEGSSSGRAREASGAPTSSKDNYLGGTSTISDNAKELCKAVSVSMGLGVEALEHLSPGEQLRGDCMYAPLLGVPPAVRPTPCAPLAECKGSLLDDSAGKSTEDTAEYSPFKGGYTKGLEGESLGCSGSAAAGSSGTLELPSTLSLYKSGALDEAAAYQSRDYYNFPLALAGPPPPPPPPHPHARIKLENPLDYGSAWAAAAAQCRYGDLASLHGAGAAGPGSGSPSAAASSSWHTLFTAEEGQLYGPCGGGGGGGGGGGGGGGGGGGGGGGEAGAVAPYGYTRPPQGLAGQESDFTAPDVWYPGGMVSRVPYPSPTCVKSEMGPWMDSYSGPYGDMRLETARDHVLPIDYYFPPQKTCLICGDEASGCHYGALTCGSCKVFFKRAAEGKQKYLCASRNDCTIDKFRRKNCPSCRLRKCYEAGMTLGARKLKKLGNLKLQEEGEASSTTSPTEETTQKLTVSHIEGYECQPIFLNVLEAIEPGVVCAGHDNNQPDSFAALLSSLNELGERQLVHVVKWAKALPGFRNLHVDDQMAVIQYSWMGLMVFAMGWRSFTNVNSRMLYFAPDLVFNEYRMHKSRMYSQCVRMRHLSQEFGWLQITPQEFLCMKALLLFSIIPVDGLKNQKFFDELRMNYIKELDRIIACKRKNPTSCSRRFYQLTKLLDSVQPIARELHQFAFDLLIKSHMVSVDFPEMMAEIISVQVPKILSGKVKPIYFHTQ
T1 sequence (P40337 whole entry): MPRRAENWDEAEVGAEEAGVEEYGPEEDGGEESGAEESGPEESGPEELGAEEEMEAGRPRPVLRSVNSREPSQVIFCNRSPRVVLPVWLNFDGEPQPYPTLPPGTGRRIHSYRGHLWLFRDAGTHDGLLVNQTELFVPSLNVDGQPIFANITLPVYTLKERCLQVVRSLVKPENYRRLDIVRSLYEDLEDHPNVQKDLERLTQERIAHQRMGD
T1 sequence (Q15369 whole entry partner): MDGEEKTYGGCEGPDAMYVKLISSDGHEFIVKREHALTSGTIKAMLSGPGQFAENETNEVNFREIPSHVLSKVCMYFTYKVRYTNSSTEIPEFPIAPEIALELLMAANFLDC
T1 sequence (Q15370 whole entry partner): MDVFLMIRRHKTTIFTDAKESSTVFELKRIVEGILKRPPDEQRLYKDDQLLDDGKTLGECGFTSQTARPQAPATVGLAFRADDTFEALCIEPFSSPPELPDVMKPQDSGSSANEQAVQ

| Compound | DC50 [nM] | Dmax [%] |
| --- | --- | --- |
| Cc1cc(N2C(=O)C(C)(C)N(c3ccc(OCCCCCOCCCOCC(=O)N[C@H](C(=O)N4C[C@H](O)C[C@H]4C(=O)NCc4ccc(-c5scnc5C)cc4)C(C)(C)C)cc3)C2=S)ccc1C#N [Example 6, (2S,4R)-1-[(2S)-2-(2-{3-[(5-{4-[3-(4-cyano-3-methylphenyl)-5,5-dimethyl-4-oxo-2-sulfanylideneimidazolidin-1-yl]phenoxy}pentyl)oxy]propoxy}acetamido)-3,3-dimethylbutanoyl]-4-hydroxy-N-{[4-(4-methyl-1,3-diiazol-5-yl)phenyl]methyl}pyrrolidine-2-carboxamid] | < 50 | > 71 |
| Cc1ncsc1-c1ccc(CNC(=O)[C@@H]2C[C@@H](O)CN2C(=O)[C@@H](NC(=O)COCCCOCCCCCOc2ccc(N3C(=S)N(c4ccc(C#N)c(F)c4)C(=O)C3(C)C)cc2)C(C)(C)C)cc1 [Example 7] | < 50 | 51 to 70 |
| COc1cc(N2C(=O)C(C)(C)N(c3ccc(OCCCCCOCCCOCC(=O)N[C@H](C(=O)N4C[C@H](O)C[C@H]4C(=O)NCc4ccc(-c5scnc5C)cc4)C(C)(C)C)cc3)C2=S)ccc1C#N [Example 9, (2S,4R)-1-[(2S)-2-(2-{3-[(5-{4-[3-(4-cyano-3-methoxyphenyl)-5,5-dimethyl-4-oxo-2-sulfanylideneimidazolidin-1-yl]phenoxy}pentyl)oxy]propoxy}acetamido)-3,3-dimethylbutanoyl]-4-hydroxy-N-{[4-(4-methyl-1,3-thiazol-5-yl)phenyl]methyl}pyrrolidine-2-carboxamide] | < 50 | > 71 |
| Cc1ncsc1-c1ccc(CNC(=O)[C@@H]2C[C@@H](O)CN2C(=O)[C@@H](NC(=O)COCCOCCOCCOc2ccc(N3C(=O)N(c4ccc(C#N)c(C(F)(F)F)c4)C(=O)C3(C)C)cc2)C(C)(C)C)cc1 [Example 17, (2S,4R)-1-[(2S)-2-[2-(2-{2-[2-(4-{3-[4-cyano-3-(trifluoromethyl)phenyl]-5,5-dimethyl-2,4-dioxoimidazolidin-1-yl}phenoxy)ethoxy]ethoxy}ethoxy)acetamido]-3,3-dimethylbutanoyl]-4-hydroxy-N-{[4-(4-methyl-1,3-thiazol-5-yl)phenyl]methyl}pyrrolidine-2-carboxamide] | 51 to 500 | 26 to 50 |
| Cc1ncsc1-c1ccc(CNC(=O)[C@@H]2C[C@@H](O)CN2C(=O)[C@@H](NC(=O)COCCOCCOCCOc2ccc(N3C(=S)N(c4ccc(C#N)c(C(F)(F)F)c4)C(=O)C3(C)C)cc2F)C(C)(C)C)cc1 [Example 18, (2S,4R)-1-[(2S)-2-[2-(2-{2-[2-(4-{3-[4-cyano-3-(trifluoromethyl)phenyl]-5,5-dimethyl-4-oxo-2-sulfanylideneimidazolidin-1-yl}-2-fluorophenoxy)ethoxy]ethoxy}ethoxy)acetamido]-3,3-dimethylbutanoyl]-4-hydroxy-N-{[4-(4-methyl-1,3-thiazol-5-yl)phenyl]methyl}pyrrolidine-2-carboxamide] | 51 to 500 | 51 to 70 |
| Cc1ncsc1-c1ccc(CNC(=O)[C@@H]2C[C@@H](O)CN2C(=O)[C@@H](NC(=O)COCCOCCOCCOc2ccc(N3C(=S)N(c4ccc([N+](=O)[O-])c(C(F)(F)F)c4)C(=O)C3(C)C)cc2)C(C)(C)C)cc1 [Example 19, (2S,4R)-1-[(2S)-2-[2-(2-{2-[2-(4-{5,5-dimethyl-3-[4-nitro-3-(trifluoromethyl)phenyl]-4-oxo-2-sulfanylideneimidazolidin-1-yl}phenoxy)ethoxy]ethoxy}ethoxy)acetamido]-3,3-dimethylbutanoyl]-4-hydroxy-N-{[4-(4-methyl-1,3-thiazol-5-yl)phenyl]methyl}pyrrolidine-2-carboxamide] | < 50 | 51 to 70 |
| Cc1ncsc1-c1ccc([C@H](C)NC(=O)[C@@H]2C[C@@H](O)CN2C(=O)[C@@H](NC(=O)COCCOCCOCCOc2ccc(N3C(=S)N(c4ccc(C#N)c(C(F)(F)F)c4)C(=O)C3(C)C)cc2)C(C)(C)C)cc1 [Example 20, (2S,4R)-1-[(2S)-2-[2-(2-{2-[2-(4-{3-[4-cyano-3-(trifluoromethyl)phenyl]-5,5-dimethyl-4-oxo-2-sulfanylideneimidazolidin-1-yl}phenoxy)ethoxy]ethoxy}ethoxy)acetamido]-3,3-dimethylbutanoyl]-4-hydroxy-N-[(1S)-1-[4-(4-methyl-1,3-thiazol-5-yl)phenyl]ethyl]pyrrolidine-2-carboxamide] | 51 to 500 | > 71 |
| Cc1ncsc1-c1ccc(CNC(=O)[C@@H]2C[C@@H](O)CN2C(=O)[C@@H](NC(=O)COCCOCCOCCOc2ccc(N3C(=S)N(c4cnc(C#N)c(C(F)(F)F)c4)C(=O)C3(C)C)cc2)C(C)(C)C)cc1 [Example 21, (2S,4R)-1-[(2S)-2-[2-(2-{2-[2-(4-{3-[6-cyano-5-(trifluoromethyl)pyridin-3-yl]-5,5-dimethyl-4-oxo-2-sulfanylideneimidazolidin-1-yl}phenoxy)ethoxy]ethoxy}ethoxy)acetamido]-3,3-dimethylbutanoyl]-4-hydroxy-N-{[4-(4-methyl-1,3-thiazol-5-yl)phenyl]methyl}pyrrolidine-2-carboxamide] | – | 26 to 50 |
| Cc1ncsc1-c1ccc(CNC(=O)[C@@H]2C[C@@H](O)CN2C(=O)[C@@H](NC(=O)COCCO[C@H](C)[C@@H](C)OCCOc2ccc(N3C(=S)N(c4ccc(C#N)c(C(F)(F)F)c4)C(=O)C3(C)C)cc2)C(C)(C)C)cc1 [Example 23, (2S,4R)-1-[(2S)-2-[2-(2-{[(2R,3R)-3-[2-(4-{3-[4-cyano-3-(trifluoromethyl)phenyl]-5,5-dimethyl-4-oxo-2-sulfanylideneimidazolidin-1-yl}phenoxy)ethoxy]butan-2-yl]oxy}ethoxy)acetamido]-3,3-dimethylbutanoyl]-4-hydroxy-N-{[4-(4-methyl-1,3-thiazol-5-yl)phenyl]methyl}pyrrolidine-2-carboxamide] | 51 to 500 | > 71 |
| Cc1ncsc1-c1ccc(CNC(=O)[C@@H]2C[C@@H](O)CN2C(=O)[C@@H](NC(=O)COCCCCOCCCCOc2ccc(N3C(=S)N(c4ccc(C#N)c(C(F)(F)F)c4)C(=O)C3(C)C)cc2)C(C)(C)C)cc1 [Example 24, (2S,4R)-1-[(2S)-2-(2-{4-[4-(4-{3-[4-cyano-3-(trifluoromethyl)phenyl]-5,5-dimethyl-4-oxo-2-sulfanylideneimidazolidin-1-yl}phenoxy)butoxy]butoxy}acetamido)-3,3-dimethylbutanoyl]-4-hydroxy-N-{[4-(4-methyl-1,3-thiazol-5-yl)phenyl]methyl}pyrrolidine-2-carboxamide] | < 50 | > 71 |
| Cc1ncsc1-c1ccc(CNC(=O)[C@@H]2C[C@@H](O)CN2C(=O)[C@@H](NC(=O)COCCOCCNC(=O)CCCc2ccc(N3C(=S)N(c4ccc(C#N)c(C(F)(F)F)c4)C(=O)C3(C)C)cc2)C(C)(C)C)cc1 [Example 62, (2S,4R)-1-((S)-2-tert-butyl-16-(4-(3-(4-cyano-3-(trifluoromethyl)phenyl)-5,5-dimethyl-4-oxo-2-thioxoimidazolidin-1-yl)phenyl)-4,13-dioxo-6,9-dioxa-3,12-diazahexadecane)-4-hydroxy-N-(4-(4-methylthiazol-5-yl)benzyl)pyrrolidine-2-carboxamide] | > 501 | 51 to 70 |
| Cc1ncsc1-c1ccc(CNC(=O)[C@@H]2C[C@@H](O)CN2C(=O)[C@@H](NC(=O)COCCOCCN(C)C(=O)CCCc2ccc(N3C(=S)N(c4ccc(C#N)c(C(F)(F)F)c4)C(=O)C3(C)C)cc2)C(C)(C)C)cc1 [Example 64, (2S,4R)-1-[(2S)-2-[2-(2-{2-[4-(4-{3-[4-cyano-3-(trifluoromethyl)phenyl]-5,5-dimethyl-4-oxo-2-sulfanylideneimidazolidin-1-yl}phenyl)-N-methylbutanamido]ethoxy}ethoxy)acetamido]-3,3-dimethylbutanoyl]-4-hydroxy-N-{[4-(4-methyl-1,3-thiazol-5-yl)phenyl]methyl}pyrrolidine-2-carboxamide] | 51 to 500 | 51 to 70 |
| Cc1ncsc1-c1ccc(CNC(=O)[C@@H]2C[C@@H](O)CN2C(=O)[C@@H](NC(=O)CCOCCOCCOc2ccc(-c3ccc(N4C(=S)N(c5ccc(C#N)c(C(F)(F)F)c5)C(=O)C4(C)C)cc3)cc2)C(C)(C)C)cc1 [Example 68, (2S,4R)-1-[(2S)-2-[3-(2-{2-[4-(4-{3-[4-cyano-3-(trifluoromethyl)phenyl]-5,5-dimethyl-4-oxo-2-sulfanylideneimidazolidin-1-yl}phenyl)phenoxy]ethoxy}ethoxy)propanamido]-3,3-dimethylbutanoyl]-4-hydroxy-N-{[4-(4-methyl-1,3-thiazol-5-yl)phenyl]methyl}pyrrolidine-2-carboxamide] | 51 to 500 | 26 to 50 |
| Cc1ncsc1-c1ccc(CNC(=O)[C@@H]2C[C@@H](O)CN2C(=O)[C@@H](NC(=O)CCOCCCCCOc2ccc(-c3ccc(N4C(=S)N(c5ccc(C#N)c(C(F)(F)F)c5)C(=O)C4(C)C)cc3)cc2)C(C)(C)C)cc1 [Example 72, (2S,4R)-1-[(2S)-2-[3-({5-[4-(4-{3-[4-cyano-3-(trifluoromethyl)phenyl]-5,5-dimethyl-4-oxo-2-sulfanylideneimidazolidin-1-yl}phenyl)phenoxy]pentyl}oxy)propanamido]-3,3-dimethylbutanoyl]-4-hydroxy-N-{[4-(4-methyl-1,3-thiazol-5-yl)phenyl]methyl}pyrrolidine-2-carboxamide] | 51 to 500 | > 71 |
| Cc1ncsc1-c1ccc(CNC(=O)[C@@H]2C[C@@H](O)CN2C(=O)[C@@H](NC(=O)OCCOCCOc2ccc(-c3ccc(N4C(=S)N(c5ccc(C#N)c(C(F)(F)F)c5)C(=O)C4(C)C)cc3F)cc2)C(C)(C)C)cc1 [Example 76, 2-{2-[4-(4-{3-[4-cyano-3-(trifluoromethyl)phenyl]-5,5-dimethyl-4-oxo-2-sulfanylideneimidazolidin-1-yl}-2-fluorophenyl)phenoxy]ethoxy}ethyl N-[(2S)-1-[(2S,4R )-4-hydroxy-2-({[4-(4-methy1-1,3-thiazol-5-yl)phenyl]methyl}carbamoyl)pyrrolidin-l-yl]-3,3-dimethyl-1-oxobutan-2-yl]carhamate] | < 50 | 51 to 70 |
